Source: PubChem BioAssay (NCI)
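Dose response: 5 concentrations. Exposure: 48 h. Format: 96-well plates. Endpoint: linear interpolation; highest concentration if not reached. TGI denotes the concentration required for complete inhibition of growth.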

How the values were obtained:
Assay in all cases: NCI anticancer screen, dose series, 48 h
[1] = test system: UACC-62 melanoma
[2] = test system: SF-539 CNS
[3] = test system: SK-MEL-5 melanoma
[4] = test system: HCT-116 colon
[5] = test system: CAKI-1 renal
[6] = test system: MCF7 breast
[7] = test system: OVCAR-5 ovarian
[8] = test system: HCT-15 colon
[9] = test system: NCI-H226 lung
[10] = test system: HS 578T breast
[11] = test system: PC-3 prostate
[12] = test system: LOX IMVI melanoma
[13] = test system: TK-10 renal
[14] = test system: UACC-257 melanoma
[15] = test system: CCRF-CEM leukemia
[16] = test system: A549 NSCLC
[17] = test system: COLO 205 colon
[18] = test system: T-47D breast
[19] = test system: SNB-75 CNS
[20] = test system: HT29 colon
[21] = test system: SK-MEL-2 melanoma
[22] = test system: RPMI-8226 leukemia
[23] = test system: OVCAR-4 ovarian
[24] = test system: SK-MEL-28 melanoma
[25] = test system: DU-145 prostate
[26] = test system: M14 melanoma
[27] = test system: HOP-92 NSCLC
[28] = test system: SW-620 colon
[29] = test system: MDA-N
[30] = test system: SNB-19 CNS
[31] = test system: U251 CNS
[32] = test system: SR leukemia
[33] = test system: SF-268 CNS
[34] = test system: HL-60(TB) leukemia
[35] = test system: 786-0 renal
[36] = test system: K-562 leukemia
[37] = test system: SN12C renal
[38] = test system: OVCAR-3 ovarian
[39] = test system: MDA-MB-435
[40] = test system: SF-295 CNS
[41] = test system: NCI/ADR-RES ovarian
[42] = test system: EKVX NSCLC
[43] = test system: IGROV1 ovarian
[44] = test system: KM12 colon
[45] = test system: MOLT-4 leukemia
[46] = test system: MDA-MB-231 breast
[47] = test system: NCI-H23 lung
[48] = test system: RXF 393 renal
[49] = test system: NCI-H522 lung
[50] = test system: NCI-H460 lung
[51] = test system: OVCAR-8 ovarian
[52] = test system: MALME-3M melanoma
[53] = test system: HOP-62 NSCLC
[54] = test system: ACHN renal
[55] = test system: A498 renal
[56] = test system: UO-31 renal

CC(=O)OCC(C)C1=C(O)C(=O)C2(C)C/C=C(/C)CC/C=C(\C)CCC(O)C(C)CCC12 (stereo unspecified)
TGI [1]: 36.8 µM
TGI [2]: 31 µM
TGI [3]: 32.1 µM
TGI [4]: 32.8 µM
TGI [5]: 35.5 µM
TGI [6]: 44.2 µM
TGI [7]: 31.6 µM
TGI [8]: 36.2 µM
TGI [9]: 33.5 µM
TGI [10]: 52.9 µM
TGI [11]: 38.1 µM
TGI [12]: 33.1 µM
TGI [13]: 35.9 µM
TGI [14]: 33.6 µM
TGI [15]: 70.9 µM
TGI [16]: 33.8 µM
TGI [17]: 31.1 µM
TGI [18]: 14.9 µM
TGI [19]: 30.5 µM
TGI [20]: 33.3 µM
TGI [21]: 39.3 µM
TGI [22]: 39.2 µM
TGI [23]: 37 µM
TGI [24]: 31.7 µM
TGI [25]: 31.7 µM
TGI [26]: 33.8 µM
TGI [27]: 33.7 µM
TGI [28]: 37.8 µM
TGI [29]: 33.6 µM
TGI [30]: 33.9 µM
TGI [31]: 30.8 µM
TGI [32]: 34.9 µM
TGI [33]: 35.4 µM
TGI [34]: 66.7 µM
TGI [35]: 32 µM
TGI [36]: 53.4 µM
TGI [37]: 34.1 µM
TGI [38]: 29.3 µM
TGI [39]: 32.2 µM
TGI [40]: 29.9 µM
TGI [41]: 44 µM
TGI [42]: 32 µM
TGI [43]: 33 µM
TGI [44]: 28.7 µM
TGI [45]: 28.6 µM
TGI [46]: 30.4 µM
TGI [47]: 36.6 µM
TGI [48]: 27.4 µM
TGI [49]: 32.6 µM
TGI [50]: 32 µM
TGI [51]: 46.6 µM
TGI [52]: 31.8 µM
TGI [53]: 32.8 µM
TGI [54]: 30.9 µM
TGI [55]: 36 µM
TGI [56]: 27.2 µM
